In article PMC12606608, “Identification of Novel Selective Transient Receptor Potential Vanilloid 4 (TRPV4) Agonists” (Current Pharmaceutical Design, 2025):
“Also recorded” adds a separate entry of the source. Where two headings read alike, the source gives them in different places.

Tests used:
[1] = target: T1, mouse TRPV4 (Mus musculus, UniProt Q9EPK8); test: Live-cell Fura-2 Ca2+ imaging in HEK293T cells transiently transfected with mouse TRPV4 (TRPV4-HEK293 cells); format: cell-based; settings: for Ca2+ influx in the presence of GSK219: agonist 30 nM, pre- and co-applied 100 nM GSK219; for Hill coefficient: concentration-response curve; for Ca2+ influx (F340/F380): 30 nM, 2 min
T1 construct: expressed in transfected cells; host or cells: HEK293 (ATCC CRL-1573; elsewhere called HEK293T), transient, Lipofectamine 2000
Protocol: HEK293 cells were purchased from ATCC (ATCC CRL-1573; Manassas, VA, USA). As previously reported, the cells were tested for mycoplasma contamination before being cultured in the laboratory and grown as a monolayer in Dulbecco’s modified Eagle’s medium (DMEM) (Life Technologies, Carlsbad, CA, USA), supplemented with 10% fetal bovine serum (FBS; Life Technologies), 100 units/mL penicillin, and 100 μg/mL streptomycin. The cells were maintained in a humidified incubator at 37°C under 5% CO2. The cDNAs for mouse TRPV4 (mTRPV4) were transiently transfected into HEK293 cells for at least 24 hours using Lipofectamine 2000 (Invitrogen, Waltham, MA, USA).
(§1) Fura-2-based ratiometric measurements of intracellular calcium concentration ([Ca^2+]i) were performed as previously described. HEK293T cells transiently transfected with mTRPV4, primary keratinocytes, and macrophages were loaded with 4 μM Fura-2 AM (Life Technologies) in culture medium at 37°C for 60 minutes. The cells were then washed three times and incubated in Hanks’ balanced salt solution (HBSS) at room temperature for 30 minutes before use. Fluorescence intensities were measured at excitation wavelengths of 340 nm and 380 nm using an inverted Leica fluorescence microscope equipped with excitation filter wheels (340 nm, 360 nm, and 380 nm). The data were captured using LAS X imaging software (Leica Microsystems, Wetzlar, Germany). The Fura-2 ratios (F340/F380) were used to indicate changes in intracellular calcium ion concentrations ([Ca^2+]i) in response to stimulation. These values were derived from time-lapse imaging of each coverslip. The baseline of the cells was measured in the resting state, and once the value stabilized, the cells were treated with drugs. If no significant difference in the cell baseline was observed, cell viability was considered consistent. The activation threshold was defined as three standard deviations (SDs) above the mean, which corresponds to approximately 20% above the baseline.
GSK101 and the compounds were dissolved to create a concentration gradient (0.3 nM, 3 nM, 30 nM, 100 nM, 0.3 μM, 3 μM, 30 μM, 300 μM). Live-cell calcium imaging experiments were performed using fura-2-labeled TRPV4-HEK293 cells, and the fluorescence curves were recorded for each concentration of the compounds. The experiments were repeated three times, with the number of live cells in each field of view exceeding 100. The real-time fluorescence intensity curves from each experiment were statistically analyzed to calculate the cell response rate (the percentage of cells showing a fluorescence increase greater than 20% above baseline relative to the total number of cells). The concentration-response curves were fitted using GraphPad Prism (with the logarithm of concentration on the X-axis and the response rate on the Y-axis), and the Hill coefficient and EC50 values for each compound were automatically output.
To evaluate the efficacy of these synthetic analogues in vitro, we assessed their ability to activate TRPV4 using a Ca^2+ imaging assay. Because of the low expression of TRPV4 in native cells, we utilized a heterologous expression system and conducted Ca^2+ imaging in HEK293T cells that were transiently transfected with mouse TRPV4 (TRPV4-HEK293 cells).

[2] = target: T2, TRPV4 in peritoneal macrophages (Mus musculus, UniProt Q9EPK8); test: Live-cell Ca2+ imaging in freshly dissociated peritoneal macrophages from TRPV4+/+ mice; format: cell-based; settings: for [Ca2+]i response: 0.3 μM
T2 construct: endogenous in cells; host or cells: freshly dissociated murine peritoneal macrophages
Protocol: Peritoneal macrophages were isolated as previously described. The mice were euthanized by cervical dislocation, and their abdomens were dissected in the middle. Six milliliters of cold phosphate-buffered saline (PBS) was instilled into the peritoneal cavity, followed by gentle massage and subsequent aspiration. The samples were centrifuged for 5 min at 4°C and 300 g, resuspended in 2 mL PBS, and filtered using […] cell strainers. After another centrifugation, the cell suspensions were seeded in […] Petri dishes containing 8-9 culture slides and placed in a culture incubator (37°C, 5% CO2).
as §1, with “baseline. […]” for “baseline.”

[3] = target: T3, TRPV4 in primary keratinocytes (Mus musculus, UniProt Q9EPK8); test: Live-cell Ca2+ imaging in primary keratinocytes of neonatal TRPV4+/+ mice; format: cell-based; settings: for [Ca2+]i response: 0.3 μM
T3 construct: endogenous in cells; host or cells: primary keratinocytes of neonatal (P0-P2) mice
Protocol: Mice (P0-P2) were sacrificed and soaked in 10% povidone-iodine for 5 min. After being rinsed with 70% ethanol multiple times, the skin was removed and placed in a Petri dish containing PBS solution with 0.25% dispase II and incubated at 4°C overnight. The epidermis was then separated from the subcutaneous tissues, and keratinocytes were separated from the epidermis using a cell scraper and collected in 2 mL mouse keratinocyte media (Life Technologies). Dissociated cells were transferred to a 15% BSA column (1 mL) and centrifuged for 5 min at 1000 rpm. The cells were resuspended and seeded in […] Petri dishes containing 8-9 culture slides and placed in the culture incubator.
as §1, with “baseline. […]” for “baseline.”

[4] = tested on: C57BL/6J mice; test: Mechanical pain test (von Frey, intraplantar injection); format: in vivo, mouse
Protocol: (§2) Eighty adult male wild-type C57BL/6J mice and thirty TRPV4 knockout C57BL/6J mice (weighing 23-25g) were purchased from Gem Pharmatech (Nanjing, China) and maintained under a 12-hour light-dark cycle at 24°C. For all experiments, mice aged 8 to 12 weeks were utilized and acclimatized to the experimental room one week before the experiments. The mice were assigned to the experimental and control groups (5 mice/group) using a computer-generated table of random numbers (0-10), as well as the sequence of dosing and measurement. All behavioral tests were recorded from a side view, and the evaluations were carried out by observers who were unaware of the animals' treatment and genotype.
The mice were allowed to acclimate for 1.5 hours in red plastic enclosures on a metal mesh platform. The test compounds (30 μM) were formulated in 0.9% saline solution and administered via intraplantar injection with a volume of 10 μL. Calibrated von Frey filaments (0.02, 0.04, 0.07, 0.16, 0.4, 0.6, 1.0, 1.4, and 2.0 g) were applied perpendicularly to the plantar surfaces of the mice's hind paws for up to 2 seconds, with sufficient force to cause the filament to bend. Brisk withdrawal or flinching of the hind paw during or immediately after application was considered a positive response. […] The threshold force required to elicit paw withdrawal (50% mechanical threshold) was obtained using the up-down method.

[5] = tested on: C57BL/6J mice; test: Acute itch test (intradermal injection into the nape, scratches in 30 min); format: in vivo, mouse; settings: 50 µL intradermal, wild-type mice
Protocol: as §2
Under 1 to 2% isoflurane anesthesia, the mice were shaved on the nape of the neck 5 to 7 days prior to the experiment. For all itch behavior experiments, the mice were acclimated in red plastic chambers for two days before measurements, with acclimation sessions lasting 2 hours on the first day and 1.5 hours on the day of measurement. GSK101 (30 μM) and the test compounds (30 μM and 300 μM) were formulated in 0.9% saline and administered via intradermal injection to the nape of the neck at a volume of 50 μL. […] Acute chemical itch was evaluated by counting the number of scratches within the 30-minute recording period.

[6] = dose-response of cell response rate, TRPV4-HEK293 cells, read-out: EC50
[7] = GSK219 1 μM pre- and co-applied

T2 sequence (Q9EPK8 whole entry): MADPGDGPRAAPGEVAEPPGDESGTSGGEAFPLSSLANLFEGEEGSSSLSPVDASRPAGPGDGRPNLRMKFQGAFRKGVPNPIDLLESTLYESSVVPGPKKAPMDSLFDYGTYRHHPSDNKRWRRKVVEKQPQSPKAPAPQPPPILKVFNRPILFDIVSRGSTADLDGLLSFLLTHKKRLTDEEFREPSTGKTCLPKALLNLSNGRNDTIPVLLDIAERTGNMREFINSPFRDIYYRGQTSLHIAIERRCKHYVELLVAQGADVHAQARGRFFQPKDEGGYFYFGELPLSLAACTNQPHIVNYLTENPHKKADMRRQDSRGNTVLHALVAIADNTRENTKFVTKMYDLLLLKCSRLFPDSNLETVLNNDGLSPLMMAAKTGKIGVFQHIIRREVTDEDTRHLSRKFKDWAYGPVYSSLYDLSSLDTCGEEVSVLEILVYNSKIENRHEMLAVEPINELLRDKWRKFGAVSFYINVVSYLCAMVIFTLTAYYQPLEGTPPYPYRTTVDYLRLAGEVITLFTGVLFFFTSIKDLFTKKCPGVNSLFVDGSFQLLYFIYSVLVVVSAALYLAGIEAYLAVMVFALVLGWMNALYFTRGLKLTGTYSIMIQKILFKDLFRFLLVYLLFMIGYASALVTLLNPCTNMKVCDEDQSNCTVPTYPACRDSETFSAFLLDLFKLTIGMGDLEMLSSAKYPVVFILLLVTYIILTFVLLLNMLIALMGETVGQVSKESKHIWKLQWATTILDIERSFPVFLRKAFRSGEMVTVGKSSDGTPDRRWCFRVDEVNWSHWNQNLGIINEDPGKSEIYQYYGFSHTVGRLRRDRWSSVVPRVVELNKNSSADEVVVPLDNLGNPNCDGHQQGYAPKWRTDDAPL
T3 sequence (Q9EPK8 whole entry): as above
T1 sequence (Q9EPK8 whole entry): as above

| Ca2+ influx in the presence of GSK219 [1] | Hill coefficient ([1]; TRPV4-HEK293 cells) | EC50 [1, 6] [µM] | Ca2+ influx (F340/F380) ([1]; TRPV4-HEK293 cells) | Structure (SMILES) | also measured |
| --- | --- | --- | --- | --- | --- |
| – | – | – | – | O=C(NC1(c2ccccc2)CC1)c1c(CN2CCC(N3CCCCC3)CC2)c(-c2cccc(C(F)(F)F)c2)nc2cc(Br)ccc12 [GSK219, reference compound] | Inhibition of agonist-elicited [Ca2+]i response [2, 7]: abolished the GSK101 action; Inhibition of agonist-elicited [Ca2+]i response [3, 7]: abolished the GSK101 action; Block of compound-induced pain-like behavior ([4]; GSK219 intraperitoneally 30 minutes before plantar injection of compounds (30 µM)): blocked the pain-like behavior induced by GSK101 derivatives; Inhibition of agonist-induced Ca2+ influx ([1]; 100 nM GSK219 pre- and co-applied, TRPV4-HEK293 cells): abolished the action of GSK101 and compounds |
| abolished | 0.7036 | 20 | – | CC(C)CC(NC(=O)c1cc2ccccc2s1)C(=O)N1CCN(C(=O)C(CO)NC(=O)c2ccc(Cl)cc2Cl)CC1 (stereo not drawn) [LM0024] | – |
| – | – | – | no measurable current | CC(C)CC(NC(=O)c1cc2ccccc2s1)C(=O)N1CCN(C(=O)C(CO)NC(=O)c2ccc(Cl)cc2)CC1 (stereo not drawn) [LM0025] | – |
| abolished | 1.0280 | 0.168 | – | CC(C)CC(NC(=O)c1cc2ccccc2s1)C(=O)N1CCCN(C(=O)C(CO)NS(=O)(=O)c2ccc(Cl)cc2Cl)CC1 (stereo not drawn) [LM0038] | [Ca2+]i response [2]: induced a significant TRPV4-mediated calcium response; also recorded: signals with lower peaks than before; [Ca2+]i response [3]: induced a significant TRPV4-mediated calcium response; also recorded: weaker calcium influx than before |
| – | – | – | no measurable current | CC(C)CC(NC(=O)c1cc2ccccc2s1)C(=O)N1CC2(C1)CN(C(=O)C(CO)NS(=O)(=O)c1ccc(Cl)cc1)C2 (stereo not drawn) [LM6140] | – |
| – | – | – | no measurable current | CC(C)CC(NC(=O)c1cc2ccccc2s1)C(=O)N1CC2(C1)CN(C(=O)C(CO)NS(=O)(=O)c1cccc(Cl)c1)C2 (stereo not drawn) [LM6142] | – |
| abolished | 0.3283 | 78.9 | – | CC(C)CC(NC(=O)c1cc2ccccc2s1)C(=O)N1CC2(C1)CN(C(=O)C(CO)NS(=O)(=O)c1ccccc1Cl)C2 (stereo not drawn) [LM6146] | Immediate pain-inducing effect compared with GSK101 ([4]; 30 µM intraplantar, 0 h, wild-type mice): slightly weaker than that of GSK101; Pain-inducing effect one hour post-injection compared with GSK101 ([4]; 30 µM intraplantar, 1 h, wild-type mice): reached a level comparable to GSK101 |
| abolished | 1.1150 | 6.08 | – | CC(C)CC(NC(=O)c1cc2ccccc2s1)C(=O)N1CC2(C1)CN(C(=O)C(CO)NS(=O)(=O)c1ccccc1)C2 (stereo not drawn) [LM6147] | – |
| – | – | – | – | C[C@H](CCC(=O)O)C[C@H](C)C[C@H](C)C(=O)/C=C(\O)[C@H](C)C[C@H](C)C/C=C/[C@@H](C)[C@@H](O)[C@@H](C)[C@@H](O)C[C@@H]1CC[C@@](C)([C@H]2CC[C@@](C)([C@@H](C)O)O2)O1 [ionomycin, reference compound] | Intracellular calcium concentration (positive control) ([1]; 1 μM ionomycin, TRPV4-HEK293 cells): rapidly and significantly increased intracellular calcium concentration |

| Structure (SMILES) | Ca2+ influx in the presence of GSK219 [1] | Hill coefficient ([1]; TRPV4-HEK293 cells) | EC50 [1, 6] [µM] | Ca2+ influx (F340/F380) ([1]; TRPV4-HEK293 cells) | also measured |
| --- | --- | --- | --- | --- | --- |
| CC(C)C[C@H](NC(=O)c1cc2ccccc2s1)C(=O)N1CC2CCC(C1)N2C(=O)C(CO)NS(=O)(=O)c1ccc(Cl)cc1Cl (stereo partly drawn) [GM1004] | abolished | 1.1650 | 11.5 | – | – |
| CC(C)CC(NC(=O)c1cc2ccccc2s1)C(=O)N1CC2COCC(C1)N2C(=O)C(CO)NS(=O)(=O)c1ccc(Cl)cc1Cl (stereo not drawn) [GM1009] | abolished | 0.2998 | 85.6 | – | – |
| CC(C)C[C@H](NC(=O)c1cc2ccccc2s1)C(=O)N1CCN(C(=O)[C@H](CO)NS(=O)(=O)c2ccc(Cl)cc2Cl)CC1 [GSK101, N-((1S)-1-{[4-((2S)-2-{[(2,4-dichlorophenyl)sulfonyl]amino}-3-hydroxypropanoyl)-1-piperazinyl]carbonyl}-3-methylbutyl)-1-benzothiophene-2-carboxamide, reference compound] | abolished | 0.9273 | – | produced a Ca^2+ influx of different strengths | [Ca2+]i response [2]: induced a significant TRPV4-mediated calcium response; [Ca2+]i response [3]: induced a significant TRPV4-mediated calcium response; Mechanical hyperalgesia (paw withdrawal) vs control group ([4]; 30 µM, 10 µL intraplantar, wild-type mice): significantly induced mechanical hyperalgesia; Number of scratching bouts within 30 minutes (average) ([5]; 30 μM): 50; Number of scratches within 30 minutes (average) ([5]; 300 µM): 88; EC50 [1]: 0.0137 µM |
